Experiment [1] in a line: Oral glucose tolerance test (OGTT) after local RTX treatment of the intestine. The experiment is classed as in vivo, Sprague-Dawley rats. From the text: (§1) Adult male Sprague-Dawley rats (Harlan, Indianapolis, IN) weighing 280-350 g were used in all the experiments. The animal protocol was approved by the Institutional Animal Care and Use Committee of the Stanford University Medical Center.
(§2) Rats were randomly divided into six groups: 1, vehicle solution treated on the surface of duodenum (n=4); 2, RTX solution treated on the surface of duodenum (n=4); 3, vehicle solution treated on the surface of ileum (1 rat) or colon (1 rat) (n=2); 4, RTX solution treated on the surface of ileum (2 rats) or colon (1 rat) (n=3); 5. Vehicle solution infuse into duodenum (n=2); 6. RTX solution infuse into duodenum (n=3).
Rats were fasted overnight prior to surgery having free access to water. Under 2% isoflurane-induced anesthesia, the abdomen was opened through a midline incision for the duodenum treatment and lower line for ileum or colon treatment. These intestines were exposed and protected with warm saline sponges around the intestine. Procedure 1: RTX application on the surface of intestine: The cotton applicator with RTX((0.32 mM) or vehicle solution were gently applied topically to the outer surface of entire duodenum (about 10 cm from the beginning of the duodenum) for 5 min. Same treatment in ileum and colon groups were applied on about 10 cm long of distal ileum and colon. Procedure 2: RTX or vehicle infused into duodenum: Two atraumatic clamps used to block on beginning and distal of duodenum. 0.8 ml of 0.32 mM RTX or vehicle was infused into duodenum through a glass syringe with a 27 gauge needle. After 30 min the RTX or vehicle solution were withdrawn and the clamps were released. After treatment, the abdominal incisions were closed. […]
Post RTX treatment 1st, 3rd and 7th week all the rats were performed the OGTT. After 17 hours overnight fasting, blood glucose was measured in conscious rats by tail-stick, using a glucose meter (Bayer Healthcare LLC, Mishawaka, IN). OGTT was measured before (baseline) and each 15 minutes for 2 hours after oral gavage glucose (1 g/kg body weight). […]

Experiment [2] is described as follows: Body weight change monitoring after local RTX treatment of the intestine. The conditions noted are these: for body weight: mean±s.e. The experiment is classed as in vivo, Sprague-Dawley rats. Set-up: body weight: unit not given here.
Description: as §1, §2
Rats were fasted overnight prior to surgery having free access to water. Under 2% isoflurane-induced anesthesia, the abdomen was opened through a midline incision for the duodenum treatment and lower line for ileum or colon treatment. These intestines were exposed and protected with warm saline sponges around the intestine. Procedure 1: RTX application on the surface of intestine: The cotton applicator with RTX((0.32 mM) or vehicle solution were gently applied topically to the outer surface of entire duodenum (about 10 cm from the beginning of the duodenum) for 5 min. Same treatment in ileum and colon groups were applied on about 10 cm long of distal ileum and colon. Procedure 2: RTX or vehicle infused into duodenum: Two atraumatic clamps used to block on beginning and distal of duodenum. 0.8 ml of 0.32 mM RTX or vehicle was infused into duodenum through a glass syringe with a 27 gauge needle. After 30 min the RTX or vehicle solution were withdrawn and the clamps were released. After treatment, the abdominal incisions were closed.
RTX solution: RTX stock solution: 1 mg RTX+10% ethanol+10% Tween-80 in saline to make 1 μg RTX/μl in stock solution. RTX work solution (0.32 mM): stock RTX solution (0.2 ml)+Saline (0.8 ml); Vehicle (like stock solution without RTX)
The body weight of rats was measured before RTX treatment and each blood glucose testing day.
Data are presented as means±s.e. Data were compared using Student's t-test. Differences were considered significant at <0.05.

`C=C(C)[C@]12C[C@@H](C)[C@@]34O[C@](Cc5ccccc5)(O[C@@H]1[C@@H]3C=C(COC(=O)Cc1ccc(O)c(OC)c1)C[C@]1(O)C(=O)C(C)=C[C@@H]41)O2` [RTX, Resiniferatoxin]: the “glucose tolerance compared with vehicle group (OGTT)” value is reported as “not significantly different” in experiment [1] (0.8 ml of 0.32 mM RTX infused into duodenum, 30 min, 2 hours testing time, all testing days); “better glucose tolerance” in experiment [1] (RTX 0.32 mM topically on the surface of duodenum, 5 min, 30 and 45-minute peak levels, 1st, 3rd and 7th week post treatment, P<0.05); “not significantly different” in experiment [1] (RTX 0.32 mM topically on the surface of ileum or colon, 2 hours testing time, all testing days). The body weight in experiment [2] (RTX infused into duodenum, 1st week post treatment) is on record as 102.4±3.0; in experiment [2] (RTX infused into duodenum, 3rd week post treatment) it was 123.1±1.6; in experiment [2] (RTX infused into duodenum, 7th week post treatment) it was 136.3±2.5; in experiment [2] (RTX on the surface of duodenum, 1st week post treatment, P<0.05 vs vehicle and vs RTX infusion), 92.0±1.0; in experiment [2] (RTX on the surface of duodenum, 3rd week post treatment, P<0.05 vs RTX infusion) it was 110.5±2.6; in experiment [2] (RTX on the surface of duodenum, 7th week post treatment, P<0.05 vs RTX infusion) it was 118.9±0.9. For the same compound, the “body weight compared with vehicle group” value in experiment [2] (RTX infused into duodenum, all measurement days) is recorded as “not significantly different”; in experiment [2] (RTX on the surface of duodenum, 3rd and 7th week post treatment) it was “not significantly different”; in experiment [2] (RTX on the surface of ileum or colon, all measurement days), “not significantly different”.

(Values after patent US20240207208A1, “Treatments for Diabetes Mellitus and Obesity” (The Board of Trustees of the Leland Stanford Junior …, priority 2011, published 2024).)
